Data taken from US20120190752A1, “EXO-S-MECAMYLAMINE METHOD, USE, AND COMPOUND FOR TREATMENT” (Targacept Inc., priority 2009, published 2012).

System: subjects with major depressive disorder (MDD) who were inadequate responders to citalopram
Experiment: MADRS total score, Phase 2b add-on trial
Type: in vivo, human
Source text: The Montgomery-Asberg Depression Rating Scale (abbreviated MADRS) is a ten-item diagnostic questionnaire which psychiatrists may use to measure the severity of depressive episodes in patients with mood disorders (Montgomery et al. 1979). It was designed in 1979 by British and Swedish researchers as an adjunct to the Hamilton Rating Scale for Depression (HAMD) which would be more sensitive to the changes brought on by antidepressants and other forms of treatment than the HAMD. There is, however, a high degree of statistical correlation between scores on the two measures. In more detail, a multi-center double-blind, randomized, placebo-controlled, parallel group, flexible dose titration study of TC-5214 as adjunctive therapy in subjects with major depressive disorder (MDD) who were inadequate responders to citalopram was conducted in centers in the US and India. The study consisted of a screening period, baseline/washout period, open-label phase, double-blind phase, and a follow-up visit. Subject participation in the study could continue for up to 16 weeks of treatment. Following a washout period of up to 28 days for other antidepressants, subjects with MDD and a MADRS total score >/=28 and a Clinical Global Impression-Severity (CGI-S) score >/=4 were enrolled on Day 1 into an open-label citalopram-only phase of the study. This phase lasted 8 weeks, with citalopram (CIT) dose increased from a once-daily dose of 20 mg (Day 1 through Week 4) to 40 mg (Week 4 through Week 8). A total of 579 subjects entered the open-label citalopram phase. At Week 8, subjects who tolerated 40 mg CIT, but whose MADRS score was reduced <50% from baseline and no lower than 17, and CGI-S≧4, were considered inadequate responders. These subjects (n=270) were randomized in a double-blind fashion to receive either placebo or TC-5214-23 as add-on therapy to continued CIT. The double-blind phase of the study also lasted 8 weeks (Week 8 to Week 16). Study drug, TC-5214-23 or placebo, was started at 2 mg daily (1 mg twice per day [BID] dosing), added on to continuing CIT (40 mg PO qd). After 2 weeks of treatment, the dose of TC-5214 could be increased to 4 mg (2 mg BID) or continued unchanged, with up-titration based upon good tolerability and inadequate therapeutic response. After a further 2 weeks, the dose of TC-5214 could be increased again to 8 mg (4 mg BID) if judged appropriate by the investigator, based upon good tolerability and inadequate therapeutic response. At any time during the double-blind phase of the study, placebo or TC-5214-23 could be reduced to the previous dose level following the emergence of unacceptable adverse events (AEs). […] At this follow-up, any signs or symptoms of relapse were evaluated. If a subject was prematurely discontinued from the study between Week 8 and Week 16 for any reason, the investigator was to make every effort to perform all evaluations as per protocol, assuming the subject had reached the end of the double-blind add-on treatment phase. These evaluations were to be made as soon as possible and within 2 weeks of discontinuation. […] There was no meaningful difference in results as a function of age, gender, site, or smoking status. With regard to efficacy endpoints, the following tables present efficacy used in the ITT (Intent-to-Treat) and PP (Per Protocol) populations unless otherwise specific. The primary inference was based upon Week 16 visit using the ITT population. Change from baseline was obtained by subtracting the baseline values from the individual on-treatment values. Change from Week 16 was obtained by subtracting the Week 16 values from the individual follow-up visit (Week 18/19) values. If either the baseline or Week 16 or on-treatment or follow-up value was missing, the change from baseline or Week 16 value was also set to missing. […]

[1] = ITT (N = 133), Double Blind Week 16
[2] = ITT (N = 133), Double Blind Week 18 (Follow-up)
[3] = ITT and PP populations, result in words
[4] = ITT population, Week 8 (double-blind baseline) to Week 16
[5] = ITT, Double Blind Week 18 LOCF (Follow-up), change from Week 16
[6] = PP (N = 113), Double Blind Week 16
[7] = PP (N = 113), Double Blind Week 18 (Follow-up)
[8] = PP, Double Blind Week 16 LOCF (change from Week 8)
[9] = PP, Double Blind Week 18 LOCF (Follow-up), change from Week 16

For CNC1(C)C2CCC(C2)C1(C)C (stereo in doubt) [TC-5214, (S)—N,2,3,3-tetramethylnorbornan-2-amine], the “MADRS reduction from baseline ≧50%: Subjects with Response (number)” value [1] was 89, the “MADRS reduction from baseline ≧50%: Subjects with Response (percentage)” value [1] was “(67%)” and the “MADRS reduction from baseline ≧50%: Subjects without Response (number)” value [1] was 44. For the same compound, the “MADRS reduction from baseline ≧50%: Subjects without Response (percentage)” value [1] was “(33%)”, the “MADRS ≦10: Subjects with Remission (number)” value [1] was 69 and the “MADRS ≦10: Subjects with Remission (percentage)” value [1] was “(52%)”. For the same compound, the “MADRS ≦10: Subjects without Remission (number)” value [1] was 64, the “MADRS ≦10: Subjects without Remission (percentage)” value [1] was “(48%)” and the “MADRS ≦12: Subjects with Remission (number)” value [1] was 77. For the same compound, the “MADRS ≦12: Subjects with Remission (percentage)” value [1] was “(58%)”, the “MADRS ≦12: Subjects without Remission (number)” value [1] was 56 and the “MADRS ≦12: Subjects without Remission (percentage)” value [1] was “(42%)”. For the same compound, the “MADRS reduction from baseline ≧50%: Subjects with Response (number)” value [2] was 94, the “MADRS reduction from baseline ≧50%: Subjects with Response (percentage)” value [2] was “(71%)” and the “MADRS reduction from baseline ≧50%: Subjects without Response (number)” value [2] was 39. For the same compound, the “MADRS reduction from baseline ≧50%: Subjects without Response (percentage)” value [2] was “(29%)”, the “MADRS ≦10: Subjects with Remission (number)” value [2] was 73 and the “MADRS ≦10: Subjects with Remission (percentage)” value [2] was “(55%)”. For the same compound, the “MADRS ≦10: Subjects without Remission (number)” value [2] was 60, the “MADRS ≦10: Subjects without Remission (percentage)” value [2] was “(45%)” and the “MADRS ≦12: Subjects with Remission (number)” value [2] was 86. For the same compound, the “MADRS ≦12: Subjects with Remission (percentage)” value [2] was “(65%)”, the “MADRS ≦12: Subjects without Remission (number)” value [2] was 47 and the “MADRS ≦12: Subjects without Remission (percentage)” value [2] was “(35%)”. The “MADRS remission (≦10 or ≦12) proportion compared with placebo” value [3] was “higher proportion of subjects meeting the remission criteria”, the “MADRS responders (reduction from baseline ≧50%) proportion compared with placebo” value [3] was “higher proportion of responders” and the “MADRS total score change from baseline compared with placebo” value [3] was “statistically significant decreases (improvements)”. The “MADRS Total Score: Adjusted Mean Change TC-5214—Placebo (SD)” value [4] was −7.54 (10.13), the “MADRS Total Score: Effect Size” value [4] was 0.74 and the “MADRS Mean Difference between TC-5214 and Placebo” value (ITT, Double Blind Week 16 LOCF (change from Week 8)) was 7.54. For the same compound, the “MADRS Adjusted Mean change” value [5] was −0.87, the “MADRS Mean Difference between TC-5214 and Placebo” value [5] was −0.54 and the “MADRS Difference vs Placebo + CIT” value (ITT, Week 8 to Week 16 LOCF) was −7.45. For the same compound, the “MADRS Adj. Mean change” value (ITT, change from Week 8 (double-blind baseline) to Week 16 LOCF, add-on to citalopram) was −17.26, the “MADRS reduction from baseline ≧50%: Subjects with Response (number)” value [6] was 84 and the “MADRS reduction from baseline ≧50%: Subjects with Response (percentage)” value [6] was “(74%)”. For the same compound, the “MADRS reduction from baseline ≧50%: Subjects without Response (number)” value [6] was 29, the “MADRS reduction from baseline ≧50%: Subjects without Response (percentage)” value [6] was “(26%)” and the “MADRS ≦10: Subjects with Remission (number)” value [6] was 67. For the same compound, the “MADRS ≦10: Subjects with Remission (percentage)” value [6] was “(59%)”, the “MADRS ≦10: Subjects without Remission (number)” value [6] was 46 and the “MADRS ≦10: Subjects without Remission (percentage)” value [6] was “(41%)”. The “MADRS ≦12: Subjects with Remission (number)” value [6] was 72, the “MADRS ≦12: Subjects with Remission (percentage)” value [6] was “(64%)” and the “MADRS ≦12: Subjects without Remission (number)” value [6] was 41. The “MADRS ≦12: Subjects without Remission (percentage)” value [6] was “(36%)”, the “MADRS reduction from baseline ≧50%: Subjects with Response (number)” value [7] was 89 and the “MADRS reduction from baseline ≧50%: Subjects with Response (percentage)” value [7] was “(79%)”. For the same compound, the “MADRS reduction from baseline ≧50%: Subjects without Response (number)” value [7] was 24, the “MADRS reduction from baseline ≧50%: Subjects without Response (percentage)” value [7] was “(21%)” and the “MADRS ≦10: Subjects with Remission (number)” value [7] was 70. For the same compound, the “MADRS ≦10: Subjects with Remission (percentage)” value [7] was “(62%)”, the “MADRS ≦10: Subjects without Remission (number)” value [7] was 43 and the “MADRS ≦10: Subjects without Remission (percentage)” value [7] was “(38%)”. For the same compound, the “MADRS ≦12: Subjects with Remission (number)” value [7] was 81, the “MADRS ≦12: Subjects with Remission (percentage)” value [7] was “(72%)” and the “MADRS ≦12: Subjects without Remission (number)” value [7] was 32. For the same compound, the “MADRS ≦12: Subjects without Remission (percentage)” value [7] was “(28%)”, the “MADRS Adjusted Mean change” value [8] was −19.34 and the “MADRS Mean Difference between TC-5214 and Placebo” value [8] was 7.97. The “MADRS Adjusted Mean change” value [9] was −1.10 and the “MADRS Mean Difference between TC-5214 and Placebo” value [9] was −0.20.
